Read-outs that look alike come from different tables or passages of the source. Ends that are not written are not given here. Peptide text beside a SMILES is read from it.
Experiments:
LDLR = LDLR (Homo sapiens, UniProt P01130); assay: LDLR binding (SPR), high surfactant preparation
Experimental: The table shown in FIG. 23 illustrates LDLR binding data (SPR), using a high surfactant preparation. Recombinant LDLR was diluted in 10 mM acetate buffer pH 4.5 and amine coupled to a CM5 chip at 1000 RU. Peptides were diluted to 5 μM in running buffer (HBS-P+, 1 mM CaCl2) and serially diluted 1:3 for 5 total concentrations. Peptides were exposed to immobilized LDLR at a rate of […] for 120 seconds. Between cycles, the chip surface was regenerated with 3 injections of 50 mM NaOH/100 mM EDTA. Multi-Cycle Kinetics was performed on a Biacore Insight Evaluation Software and binding kinetics were analyzed with a 1:1 binding model.

ARPE-19 cells [1] = assay: ARPE-19 cell viability assay (Cell Titer Glo); assay type: cell-based, human; conditions: 100 μM peptide, 1.5 hours
Experimental: ARPE-19 cells were seeded in 96-well plates at 25,000 cells/well and allowed to adhere to the plate surface for at least 24 hours. Peptides were diluted in serum-free DMEM: F12 to a final concentration of 100 μM. Cells were washed, then incubated in 100 μM peptide solution for 1.5 hours at 37° C. Plates were brought to room temperature for 30 minutes, then washed with DPBS. Cells were incubated in a 1:1 mixture of DPBS and Cell Titer Glo 2.0 Reagent for 10 minutes at room temperature, then cell luminescence was read on a plate reader. Viability values were background corrected, and 0% viability is determined by luminescence values of cells treated with 1% Triton-X-100. Data are presented as mean+SD over two separate runs.

[2] = key assays (summary statement on homologous variants)
ARPE-19 cells [3] = assay: ARPE-19 cholesterol efflux; assay type: cell-based, human; conditions: ARPE-19, 20 μM peptide, 4 hours
Experimental: Fully confluent 96-well plates of ARPE-19 cells were treated for 1 hour in serum-free DMEM containing 10 mM methyl-β-cyclodextrin, 100 μM cholesterol, and 25 μM BODIPY cholesterol. Cells were then washed and incubated overnight in serum-free DMEM containing 1 μM GW3965, 2 μg/mL ACAT inhibitor, and 0.2% BSA (LXR Agonist treated), or serum free DMEM containing 2 μg/mL ACAT inhibitor, and 0.2% BSA (Control). Cells were washed and incubated with 20 μM peptides diluted in serum-free Fluorobrite DMEM for 4 hours at 37° C. Media was transferred to a new 96-well plate and fresh serum-free Fluorobrite DMEM was placed on the cells. Media and cellular fluorescence were read on a Promega GloMax at 475 nm excitation, 500-550 emission. Fluorescence values were background corrected from no treatment conditions and percent efflux was calculated by the following equation: % efflux=(Media Fluorescence values)/(Media+Cell Fluorescence values). Data are presented as mean+SD over two runs per peptide.

[4] = high surfactant preparation (HBS-P+), 1:1 binding model, read-out: binding KD to LDLR

Sequence of LDLR (P01130 22-860): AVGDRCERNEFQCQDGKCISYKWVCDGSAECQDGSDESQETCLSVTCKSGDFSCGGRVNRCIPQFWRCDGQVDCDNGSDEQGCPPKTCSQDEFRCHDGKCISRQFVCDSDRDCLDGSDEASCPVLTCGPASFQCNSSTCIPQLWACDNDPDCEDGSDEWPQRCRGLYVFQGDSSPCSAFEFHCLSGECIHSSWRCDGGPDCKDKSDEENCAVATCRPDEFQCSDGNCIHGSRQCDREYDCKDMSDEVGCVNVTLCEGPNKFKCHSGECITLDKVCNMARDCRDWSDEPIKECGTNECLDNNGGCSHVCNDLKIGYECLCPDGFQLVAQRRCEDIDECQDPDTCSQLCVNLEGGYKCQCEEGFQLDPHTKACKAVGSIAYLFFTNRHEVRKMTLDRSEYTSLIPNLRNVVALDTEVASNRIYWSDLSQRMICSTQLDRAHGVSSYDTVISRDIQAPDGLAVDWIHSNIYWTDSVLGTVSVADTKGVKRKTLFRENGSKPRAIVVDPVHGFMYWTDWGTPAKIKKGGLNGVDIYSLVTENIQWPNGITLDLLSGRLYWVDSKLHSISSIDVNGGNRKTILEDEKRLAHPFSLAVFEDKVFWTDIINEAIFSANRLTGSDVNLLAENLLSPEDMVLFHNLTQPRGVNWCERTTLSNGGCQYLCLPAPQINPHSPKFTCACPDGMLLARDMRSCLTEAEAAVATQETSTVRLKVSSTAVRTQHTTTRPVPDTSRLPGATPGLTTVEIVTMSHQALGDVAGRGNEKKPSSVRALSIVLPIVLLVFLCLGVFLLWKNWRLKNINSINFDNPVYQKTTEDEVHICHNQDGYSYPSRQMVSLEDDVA

Row | Kd (LDLR; [4]) [µM] | Compound | ARPE-19 cell viability (ARPE-19 cells [1]) | Kd (LDLR) [µM] | activity in key assays of polypeptides homologous to T-087 [2] | cholesterol efflux following LXR agonist treatment (ARPE-19 cells [3])
1 | < 10 | CC(C)C[C@H](NC(=O)[C@H](CCCNC(=N)N)NC(=O)[C@H](CC(=O)O)NC(=O)[C@H](Cc1ccc(O)cc1)NC(=O)[C@H](CC(C)C)NC(=O)[C@H](CCCCN)NC(=O)[C@H](CC(=O)O)NC(=O)CNC(=O)[C@H](CC(=O)O)NC(=O)[C@H](CCCNC(=N)N)NC(=O)[C@H](CC(C)C)NC(=O)[C@H](CC(C)C)NC(=O)[C@H](CCCNC(=N)N)NC(=O)[C@H](CCCCN)NC(=O)[C@H](CCCNC(=N)N)NC(=O)[C@H](CC(C)C)NC(=O)[C@H](CCCCN)NC(=O)[C@H](CCCNC(=N)N)NC(=O)[C@H](CC(C)C)NC(=O)[C@@H](N)Cc1c[nH]cn1)C(=O)N[C@@H](C)C(=O)N[C@@H](CCC(=O)O)C(=O)N[C@@H](Cc1ccc(O)cc1)C(=O)N[C@@H](Cc1ccc(O)cc1)C(=O)N[C@@H](C)C(=O)N[C@@H](CCCNC(=N)N)C(=O)N[C@@H](C)C(=O)N[C@@H](CCCCN)C(=O)N[C@@H](CCC(=O)O)C(=O)N[C@@H](C)C(=O)N[C@@H](Cc1ccccc1)C(=O)N[C@@H](CC(=O)O)C(=O)N[C@@H](CCCNC(=N)N)C(=O)O [T-062] (H-HLRKLRKRLLRDGDKLYDRLAEYYARAKEAFDR-OH) | substantial change in viability | – | – | –
2 | < 10 | CSCC[C@H](NC(=O)[C@H](CC(C)C)NC(=O)[C@H](CC(=O)O)NC(=O)[C@H](CCCCN)NC(=O)CNC(=O)[C@H](Cc1ccc(O)cc1)NC(=O)[C@H](CC(=O)O)NC(=O)[C@@H](NC(=O)[C@@H](NC(=O)[C@@H](NC(=O)[C@H](CCC(N)=O)NC(=O)[C@H](Cc1ccccc1)NC(=O)[C@H](Cc1ccc(O)cc1)NC(=O)[C@H](CCC(N)=O)NC(=O)[C@H](CO)NC(=O)[C@@H](NC(=O)[C@H](CC(C)C)NC(=O)[C@H](CO)NC(=O)[C@H](CCCNC(=N)N)NC(=O)[C@H](CC(C)C)NC(=O)[C@H](CC(C)C)NC(=O)[C@H](CCCNC(=N)N)NC(=O)[C@H](CCCCN)NC(=O)[C@H](CCCNC(=N)N)NC(=O)[C@H](CC(C)C)NC(=O)[C@H](CCCCN)NC(=O)[C@H](CCCNC(=N)N)NC(=O)[C@H](CC(C)C)NC(=O)[C@H](Cc1c[nH]cn1)NC(=O)[C@H](CO)NC(=O)[C@H](C)NC(=O)[C@@H](N)CC(C)C)C(C)C)[C@@H](C)O)C(C)C)[C@@H](C)O)C(=O)O [T-065] (H-LASHLRKLRKRLLRSLVSQYFQTVTDYGKDLM-OH) | substantial change in viability | – | – | –
3 | – | CC(C)C[C@H](NC(=O)[C@H](C)NC(=O)[C@H](CCCNC(=N)N)NC(=O)[C@H](Cc1ccccc1)NC(=O)[C@H](CCC(=O)O)NC(=O)[C@H](CCCNC(=N)N)NC(=O)[C@@H](N)Cc1c[nH]c2ccccc12)C(=O)N[C@@H](Cc1ccccc1)C(=O)N[C@@H](CCCCN)C(=O)N[C@@H](CCC(=O)O)C(=O)N[C@@H](CC(C)C)C(=O)N[C@@H](C)C(=O)N[C@@H](CC(=O)O)C(=O)N[C@@H](Cc1ccc(O)cc1)C(=O)N[C@@H](Cc1ccccc1)C(=O)N[C@@H](CCCNC(=N)N)C(=O)N[C@@H](CC(=O)O)C(=O)N[C@@H](C)C(=O)O [T-085] (H-WREFRALFKELADYFRDA-OH) | substantial change in viability | – | – | –
4 | < 10 | CC(C)C[C@H](NC(=O)[C@H](CC(=O)O)NC(=O)[C@H](CCCCN)NC(=O)CNC(=O)[C@H](Cc1ccc(O)cc1)NC(=O)[C@H](CC(=O)O)NC(=O)[C@@H](NC(=O)[C@@H](NC(=O)[C@@H](NC(=O)[C@H](CCC(N)=O)NC(=O)[C@H](CCCNC(=N)N)NC(=O)[C@H](Cc1ccc(O)cc1)NC(=O)[C@H](CCC(N)=O)NC(=O)[C@H](CO)NC(=O)[C@@H](NC(=O)[C@H](CC(C)C)NC(=O)[C@H](CO)NC(=O)[C@H](CCCNC(=N)N)NC(=O)[C@H](CC(C)C)NC(=O)[C@H](CC(C)C)NC(=O)[C@H](CCCNC(=N)N)NC(=O)[C@H](CCCCN)NC(=O)[C@H](CCCNC(=N)N)NC(=O)[C@H](CC(C)C)NC(=O)[C@H](CCCCN)NC(=O)[C@H](CCCNC(=N)N)NC(=O)[C@H](CC(C)C)NC(=O)[C@@H](N)Cc1c[nH]cn1)C(C)C)[C@@H](C)O)C(C)C)[C@@H](C)O)C(=O)O [T-110] (H-HLRKLRKRLLRSLVSQYRQTVTDYGKDL-OH) | substantial change in viability | – | – | –
5 | < 10 | CC(C)C[C@H](NC(=O)[C@H](CC(=O)O)NC(=O)[C@H](CCC(=O)O)NC(=O)CNC(=O)[C@H](Cc1ccc(O)cc1)NC(=O)[C@H](CC(=O)O)NC(=O)[C@@H](NC(=O)[C@@H](NC(=O)[C@@H](NC(=O)[C@H](CCC(N)=O)NC(=O)[C@H](CCCNC(=N)N)NC(=O)[C@H](Cc1ccc(O)cc1)NC(=O)[C@H](CCC(N)=O)NC(=O)[C@H](CO)NC(=O)[C@@H](NC(=O)[C@H](CC(C)C)NC(=O)[C@H](CO)NC(=O)[C@H](CCCNC(=N)N)NC(=O)[C@H](CC(C)C)NC(=O)[C@H](CC(C)C)NC(=O)[C@H](CCCNC(=N)N)NC(=O)[C@H](CCCCN)NC(=O)[C@@H](NC(=O)[C@H](CC(C)C)NC(=O)[C@H](CCCCN)NC(=O)[C@H](CCCNC(=N)N)NC(=O)[C@H](CC(C)C)NC(=O)[C@@H](N)Cc1c[nH]cn1)C(C)C)C(C)C)[C@@H](C)O)C(C)C)[C@@H](C)O)C(=O)O [T-111] (H-HLRKLVKRLLRSLVSQYRQTVTDYGEDL-OH) | substantial change in viability | – | – | –
6 | – | DHINKVQRKVTHEIERLFLGQSTEELRVRLASHLRKLRKRLLRDADDLQKRLAVYQA [T-115] | substantial change in viability | < 10 | – | –
7 | – | T-152: variant of peptide T-087 (AAWERFRALFKELADYFR) | – | – | sustained or improved activity | increased cholesterol efflux
8 | – | T-160: variant of peptide T-087 (DAWERFRPLFKELADYFR) | – | – | sustained or improved activity | increased cholesterol efflux
9 | – | T-161: variant of peptide T-087 (DAWERFRGLFKELADYFR) | – | – | sustained or improved activity | increased cholesterol efflux
10 | – | T-163: variant of peptide T-087 (DAWERFRALAKELADYFR) | – | – | sustained or improved activity | increased cholesterol efflux
11 | – | T-172: variant of peptide T-087 (DAWERFRALFKELADYFA) | – | – | sustained or improved activity | increased cholesterol efflux
12 | – | VRGRLVQYRGEVQAMLGQSTEELRVRLASHLRKLRKRLLRDADDLQKRLAVYQA [T-069] | substantial change in viability | < 10 | – | –

From patent US20260115250A1, “METHODS OF TREATING AGE-RELATED MACULAR DEGENERATION” (Character Biosciences, Inc., priority 2022, published 2026)
